Test results as given in ChEMBL document CHEMBL2150895, “Zizimauritic acids A-C, three novel nortriterpenes from Ziziphus mauritiana” (Bioorg Med Chem Lett, 2012).
Values after ≈ are worked out from the molar mass of the structure shown. Active and inactive are the calls of the source. The calls are words filed in the database; no cut-off is given here.

Key:
A549 = assay: Cytotoxicity against human A549 cells; format: functional, cell-based
BGC-823 = assay: Cytotoxicity against human BGC823 cells; format: functional, cell-based
HeLa = assay: Cytotoxicity against human HeLa cells; format: functional, cell-based
Staphylococcus aureus = assay: Antibacterial activity against Staphylococcus aureus; format: functional, organism-based
Candida albicans = assay: Antifungal activity against Candida albicans; format: functional, organism-based

With C=C(C)[C@@H]1CC[C@]2(C(=O)O)CC[C@]3(C)[C@H](CC[C@@H]4[C@@]5(C)CC[C@H](O)C(C)(C)[C@@H]5CC[C@]43C)[C@@H]12 the Activity (A549) was “inactive”, the Activity (BGC-823) was “inactive” and the Activity (HeLa) was “inactive”. For the same compound, the Activity (Staphylococcus aureus) was “inactive”.

Compound CO[C@@H]1C[C@@]2(CC[C@]3(C(=O)O)[C@H](CC[C@@H]4[C@@]5(C)C=CC(C)(C)[C@@H]5CC[C@]43C)[C@H]2C=C(C)C)C(=O)O1 [ZIZIMAURITIC ACID B] has an IC50 (A549) of 5.05 µg/mL (≈ 10.4 µM), an IC50 (BGC-823) of 6.24 µg/mL (≈ 12.9 µM) and an IC50 (HeLa) of 5.36 µg/mL (≈ 11.1 µM). For the same compound, the IC50 (Staphylococcus aureus) was over 20 µg/mL and the IC50 (Candida albicans) was over 10 µg/mL.

Compound Clc1ccc(COC(Cn2ccnc2)c2ccc(Cl)cc2Cl)c(Cl)c1.O=[N+]([O-])O (configuration not stated) [MICONAZOLE NITRATE] has an IC50 (Candida albicans) of 0.16 µg/mL.

In the case of C=C(C)[C@@H]1CC[C@]2(C(=O)O)CC[C@]3(C)[C@H](CC[C@@H]4[C@@]5(C)[C@@H](C(=O)O)[C@H](O)C(C)(C)[C@@H]5CC[C@]43C)[C@@H]12, the Activity (A549) was “inactive”, the Activity (BGC-823) was “inactive” and the Activity (HeLa) was “inactive”. For the same compound, the Activity (Staphylococcus aureus) was “inactive”.

With CC(C)=C[C@@H]1[C@H]2CC[C@@H]3[C@@]4(C)C=CC(C)(C)[C@@H]4CC[C@@]3(C)[C@]2(C(=O)O)CC[C@@]12CC(O)OC2=O (mixture of isomers) [ZIZIMAURITIC ACID C] the IC50 (A549) was 11.9 µg/mL, the IC50 (BGC-823) was 10.1 µg/mL and the IC50 (HeLa) was 9.25 µg/mL. For the same compound, the IC50 (Staphylococcus aureus) was 12.8 µg/mL and the IC50 (Candida albicans) was over 10 µg/mL.

Work on CO[C@H]1C[C@@]2(CC[C@]3(C(=O)O)[C@H](CC[C@@H]4[C@@]5(C)C=CC(C)(C)[C@@H]5CC[C@]43C)[C@H]2C=C(C)C)C(=O)O1 [ZIZIMAURITIC ACID A] yielded an IC50 (A549) of 9.37 µg/mL (≈ 19.3 µM), an IC50 (BGC-823) of 8.8 µg/mL (≈ 18.2 µM) and an IC50 (HeLa) of 6.06 µg/mL (≈ 12.5 µM). It also gave an IC50 (Staphylococcus aureus) of 2.17 µg/mL (≈ 4.48 µM) and an IC50 (Candida albicans) of over 10 µg/mL.

C=C(C)[C@@H]1CC[C@]2(C(=O)O)CC[C@]3(C(=O)O)[C@H](CC[C@@H]4[C@@]5(C)C=CC(C)(C)[C@@H]5CC[C@]43C)[C@@H]12 [CEANOTHENIC ACID] was tested, and the IC50 (BGC-823) was over 10 µg/mL, the IC50 (HeLa) was 7.55 µg/mL (≈ 16.6 µM) and the IC50 (Staphylococcus aureus) was over 20 µg/mL. The IC50 (Candida albicans) was over 10 µg/mL.

Compound CC(=O)O[C@H]1C(=O)[C@@]2(C)[C@H]([C@H](OC(=O)c3ccccc3)[C@]3(O)C[C@H](OC(=O)[C@H](O)[C@@H](NC(=O)c4ccccc4)c4ccccc4)C(C)=C1C3(C)C)[C@]1(OC(C)=O)CO[C@@H]1C[C@@H]2O [PACLITAXEL] has an IC50 (A549) of 0.02 µg/mL (≈ 0.0234 µM), an IC50 (BGC-823) of 0.01 µg/mL (≈ 0.0117 µM) and an IC50 (HeLa) of 0.38 µg/mL (≈ 0.445 µM).

CC1(C)S[C@@H]2[C@H](NC(=O)[C@H](N)c3ccccc3)C(=O)N2[C@H]1C(=O)O [AMPICILLIN] showed an IC50 (Staphylococcus aureus) of 0.04 µg/mL (≈ 0.114 µM).
